Assay results as given in ChEMBL document CHEMBL1201862, “PubChem BioAssay data set” (2004).
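In this assay, cells in 96-well plates receive the compound at five concentrations for 48 hours. Endpoints are linearly interpolated between the surrounding concentrations. GI50 = concentration required for 50% inhibition of growth.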 Activity calls are given as the source filed them. Cut-off read from the data, not from the text of the source: active = GI50 up to about 1.1 µM and inactive = higher.

Legend:
Assay in all cases: DTP human tumour cell line panel, 48 h
ACHN = system: ACHN
CAKI-1 = system: CAKI-1
COLO 205 = system: COLO 205
HCC 2998 = system: HCC 2998
HCT-116 = system: HCT-116
HOP-62 = system: HOP-62
HOP-92 = system: HOP-92
KM12 = system: KM12
NCI-H226 = system: NCI-H226
NCI-H460 = system: NCI-H460
OVCAR-4 = system: OVCAR-4
OVCAR-5 = system: OVCAR-5
PC-3 = system: PC-3
RXF 393 = system: RXF 393
SK-MEL-28 = system: SK-MEL-28
SN12C = system: SN12C
SW-620 = system: SW-620
U-251 = system: U-251
UACC-257 = system: UACC-257
UO-31 = system: UO-31

SMILES | GI50 (ACHN) | GI50 (CAKI-1) | GI50 (COLO 205) | GI50 (HCC 2998) | GI50 (HCT-116) | GI50 (HOP-62) | GI50 (HOP-92) | GI50 (KM12) | GI50 (NCI-H226) | GI50 (NCI-H460) | GI50 (OVCAR-4) | GI50 (OVCAR-5) | GI50 (PC-3) | GI50 (RXF 393) | GI50 (SK-MEL-28) | GI50 (SN12C) | GI50 (SW-620) | GI50 (U-251) | GI50 (UACC-257) | GI50 (UO-31)
O=c1[nH]c(=O)n(COCc2ccccc2)cc1Nc1ccc(Br)cc1 | > 100 µM (inactive) | > 100 µM (inactive) | > 100 µM (inactive) | > 100 µM (inactive) | > 100 µM (inactive) | 17.1 µM (inactive) | > 100 µM (inactive) | > 100 µM (inactive) | > 100 µM (inactive) | > 100 µM (inactive) | > 100 µM (inactive) | > 100 µM (inactive) | > 100 µM (inactive) | 43.2 µM (inactive) | > 100 µM (inactive) | > 100 µM (inactive) | > 100 µM (inactive) | > 100 µM (inactive) | > 100 µM (inactive) | > 100 µM (inactive)
COC1=CC(=O)c2nc3ccccc3c3ccnc1c23 | 3.42 µM (inactive) | 14.3 µM (inactive) | 6.64 µM (inactive) | 3.1 µM (inactive) | 1.2 µM (inactive) | 5.74 µM (inactive) | 15.8 µM (inactive) | 4.04 µM (inactive) | 10.8 µM (inactive) | 0.434 µM (active) | 4.89 µM (inactive) | 12.5 µM (inactive) | 1.81 µM (inactive) | 2.61 µM (inactive) | 19.7 µM (inactive) | 6.82 µM (inactive) | 1.03 µM (active) | 5.05 µM (inactive) | 5.16 µM (inactive) | 4.35 µM (inactive)
CC(C)(C)c1ccc(S(=O)(=O)N2C(c3cccc(C4CC[C@@H](C(=O)O)N4S(=O)(=O)c4ccc(C(C)(C)C)cc4)c3)CC[C@H]2C(=O)O)cc1 (stereo not given in full) | 57.4 µM (inactive) | 42.5 µM (inactive) | 34 µM (inactive) | 47.4 µM (inactive) | 38.1 µM (inactive) | 98.4 µM (inactive) | 58.1 µM (inactive) | 53.8 µM (inactive) | 71.9 µM (inactive) | 47.9 µM (inactive) | 54.8 µM (inactive) | > 100 µM (inactive) | 32.7 µM (inactive) | 30.1 µM (inactive) | > 100 µM (inactive) | 47.3 µM (inactive) | 69.3 µM (inactive) | 38.9 µM (inactive) | 53 µM (inactive) | 33.5 µM (inactive)
CC1=CC[C@H](C[C@H](C#CCCCC2OCCO2)O[Si](C(C)C)(C(C)C)C(C)C)C(=O)CC1 | > 100 µM (inactive) | > 100 µM (inactive) | > 100 µM (inactive) | > 100 µM (inactive) | > 100 µM (inactive) | > 100 µM (inactive) | > 100 µM (inactive) | > 100 µM (inactive) | > 100 µM (inactive) | > 100 µM (inactive) | > 100 µM (inactive) | > 100 µM (inactive) | > 100 µM (inactive) | > 100 µM (inactive) | > 100 µM (inactive) | > 100 µM (inactive) | > 100 µM (inactive) | > 100 µM (inactive) | > 100 µM (inactive) | > 100 µM (inactive)
[N-]=[N+]=Nc1c([N+](=O)[O-])c(Cl)nc2ccccc12 | 1.76 µM (inactive) | 0.971 µM (active) | 1.74 µM (inactive) | 1.98 µM (inactive) | 1.63 µM (inactive) | 19.8 µM (inactive) | 1.95 µM (inactive) | 7.16 µM (inactive) | 10.6 µM (inactive) | 10.8 µM (inactive) | 1.9 µM (inactive) | 2.44 µM (inactive) | 1.91 µM (inactive) | 1.86 µM (inactive) | 2.48 µM (inactive) | 2.23 µM (inactive) | 0.48 µM (active) | 5.96 µM (inactive) | 1.69 µM (inactive) | 0.632 µM (active)
COc1ccc2c3c1OC1C34CCN(C)C(C2)C4=CC(I)C1(OC)OC (stereo not given) | 11.3 µM (inactive) | 12.9 µM (inactive) | 13.9 µM (inactive) | 10.2 µM (inactive) | 3.93 µM (inactive) | 8.77 µM (inactive) | 11.4 µM (inactive) | 14.4 µM (inactive) | 18.6 µM (inactive) | 13.5 µM (inactive) | 13.2 µM (inactive) | 18.6 µM (inactive) | 10.2 µM (inactive) | 10.5 µM (inactive) | 12.1 µM (inactive) | 5.78 µM (inactive) | 2.68 µM (inactive) | 16.2 µM (inactive) | 13.2 µM (inactive) | 14.9 µM (inactive)
FC(F)(Sc1ncccn1)c1nc2ccccc2o1 | > 100 µM (inactive) | > 100 µM (inactive) | > 100 µM (inactive) | > 100 µM (inactive) | 84.3 µM (inactive) | > 100 µM (inactive) | 56.8 µM (inactive) | > 100 µM (inactive) | > 100 µM (inactive) | > 100 µM (inactive) | > 100 µM (inactive) | > 100 µM (inactive) | 89.1 µM (inactive) | 79.3 µM (inactive) | > 100 µM (inactive) | > 100 µM (inactive) | > 100 µM (inactive) | 55.5 µM (inactive) | > 100 µM (inactive) | 99.3 µM (inactive)
Cc1ccc(S(=O)(=O)N/N=C/C2(c3ccccc3)c3ccccc3-c3ccccc32)cc1 | 4.94 µM (inactive) | 12.6 µM (inactive) | 3.62 µM (inactive) | 13.3 µM (inactive) | 7.08 µM (inactive) | 17.7 µM (inactive) | 12.6 µM (inactive) | 7.76 µM (inactive) | 14.7 µM (inactive) | 5.06 µM (inactive) | 10.3 µM (inactive) | 12.4 µM (inactive) | 3.38 µM (inactive) | 13 µM (inactive) | 14.8 µM (inactive) | 11.7 µM (inactive) | 15 µM (inactive) | 11.8 µM (inactive) | 15.6 µM (inactive) | 5.82 µM (inactive)
